The experiment relates to elektrische Hirnaktivität. Nature of the experiment: EEG recording (CATEEM system, 17 electrodes, 10/20 system) of electrical brain activity after a single oral intake, compared with placebo; studies 1, 3, 4 and 5. The note with it: for Hirnaktivität / Hirnleistung / Gehirnfunktion (Stimulierung): conclusion in words drawn from the EEG results; for delta Aktivität in Bezug auf die Referenz (Placebo) / Veränderung der delta Aktivität im Vergleich zu Placebo: oral, Augen offen; for Veränderung der delta Aktivität im Vergleich zu Placebo: during 4 Stunden after intake, studies 3-5; for neuro-regenerierende Wirkung: summary of Studienbeispiele 1 - 5, EEG, single oral dose; for delta Power (delta Aktivität): study 1, recording condition not stated, 1-4 h after oral intake. It is filed as in vivo, gesunden Testpersonen.

“Also recorded” adds a separate entry of the source.

For `C[N+](C)(C)CCOP(=O)([O-])OP(=O)(O)OC[C@H]1O[C@@H](n2ccc(N)nc2=O)[C@H](O)[C@@H]1O` [CDP-Cholin, Cytidindiphosphocholin], the “Hirnaktivität / Hirnleistung / Gehirnfunktion (Stimulierung)” value was “nicht bzw. nur leicht jedoch nicht signifikant steigern” and the “neuro-regenerierende Wirkung” value is listed as “-”. The “delta Aktivität in Bezug auf die Referenz (Placebo)” value (“delta Aktivität … (Placebo)” below) (1 h after intake) amounted to 98%. Also, the “delta Aktivität … (Placebo)” value (2h after intake) was determined as 102%. For the same molecule, where the note is “4h after intake”, the “delta Aktivität … (Placebo)” value amounted to 96%. Further, the “Veränderung der delta Aktivität im Vergleich zu Placebo” value (result in words) was “geringfügige aber im Vergleich zum Placebo-Arm nicht signifikante Veränderung”.

Phosphatidylserin: the “Hirnaktivität / Hirnleistung / Gehirnfunktion (Stimulierung)” value is “nicht bzw. nur leicht jedoch nicht signifikant steigern; also recorded: nicht beobachtet” and the “neuro-regenerierende Wirkung” value is given as “-”. Besides, the “delta Aktivität … (Placebo)” value (1 h after intake) stood at 96%. Also, the “delta Aktivität … (Placebo)” value (2h after intake) is 94%. In addition, under “4h after intake”, the “delta Aktivität … (Placebo)” value is listed as 94%. Further, for the setting “result in words”, the “Veränderung der delta Aktivität im Vergleich zu Placebo” value is on record as “keinen signifikanten Veränderungen” and the “delta Power (delta Aktivität)” value is recorded as “Abnahme des delta Power”. Also, for the setting “result in words, study 1”, the “Beta-Aktivitäten (beta Power)” value was “nur bei einem Messzeitpunkt nämlich 3 Stunden nach Verabreichung des Wirkstoffs eine statistisch signifikante Abnahme” and the “alpha Power (alpha Aktivität)” value is recorded as “leichter aber nicht signifikanter Zunahme”. Moreover, the “delta Aktivitäten” value (result in words, study 1, Augen offen) is “während der zweiten und dritten Stunde vermindert, aber keine statistische Signifikanz”. Further, where the note is “result in words, listed as INDO I”, the “delta Power (delta Aktivität)” value is “Abnahme der elektrischen delta Aktivität (delta Power), die jedoch nur 4 Stunden nach Applikation statistisch signifikant war”.
